In patent US9624170B2, “4-(piperrazin-1-yl)-pyrrolidin-2-one compounds as monoacylglycerol lipase (MAGL) inhibitors” (TAKEDA PHARMACEUTICAL COMPANY LIMITED, priority 2013, dated 2017):

Molecular target: T1, human MAGL (His-hMAGL) (Homo sapiens, UniProt Q99685)
T1 construct: made in house; host or cells: Escherichia coli BL21(DE3)
T1 sequence (Q99685 1-303): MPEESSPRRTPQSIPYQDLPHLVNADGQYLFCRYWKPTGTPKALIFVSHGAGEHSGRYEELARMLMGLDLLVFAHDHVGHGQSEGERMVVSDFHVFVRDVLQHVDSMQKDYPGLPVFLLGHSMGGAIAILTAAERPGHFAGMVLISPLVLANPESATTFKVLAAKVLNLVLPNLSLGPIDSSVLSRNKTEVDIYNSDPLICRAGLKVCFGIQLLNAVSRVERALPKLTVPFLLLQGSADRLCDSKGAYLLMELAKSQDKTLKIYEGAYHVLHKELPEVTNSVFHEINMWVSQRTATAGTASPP
Test: Measurement of MAGL inhibitory activity by absorbance
Format: biochemical
Conditions: 10 μM test compound, substrate p-nitrophenyl acetate, absorbance at 405 nm
Text: (1) Cloning of Human MGLL Encoding MAGL Protein and Construction of Expression Plasmid
Human MGLL cDNA was obtained by PCR using human ORF Clone (DNAForm; Clone ID: 100004585) as a template. For PCR, two kinds of primers: […]
The obtained PCR product was digested with Bam HI and Not I (Takara Bio Inc.), inserted into the Bam HI/Not I site of pET21HH(V) (pET21a (Novagen) inserted with His x6 and TEV Protease recognition sequence) by using Ligation High (Toyobo Co., Ltd.), and introduced into ECOS™ JM109 (Nippon Gene Co., Ltd.), whereby expression plasmid pET21HH(V)/His-hMGLLv2 for Escherichia coli was constructed. (2) Preparation of Recombinant Polyhistidine Tagged Human MAGL Protein
Recombinant His-hMAGL protein was prepared by transforming ECOS™ Competent E. coli BL21(DE3) (Nippon Gene Co., Ltd.) with the pET21HH(V)/His-hMGLLv2 plasmid prepared above. Escherichia coli obtained by transformation was inoculated to 10 mL of LB medium (1% peptone, 0.5% yeast extract, 0.5% sodium chloride, 0.01% ampicillin), and cultured at 30° C. for 16 hr. […] When the turbidity of the culture medium reached about 500 Klett unit, the culture temperature was lowered to 16° C., isopropyl-β-D-thiogalactopyranoside (IPTG) was added to a final concentration of 1 mM, and the mixture was further cultured for 19 hr. After the completion of culture, the culture medium was centrifuged (4° C., 6,000 rpm, 10 min) to give His-hMAGL expression Escherichia coli. Then, His-hMAGL expression Escherichia coli was suspended in 50 mM Tris-HCl (pH 8.0, 100 ml) containing 1% Triton X-100, 20 mM imidazole, 3 mM DTT, 5 U/mL Benzonase (Merck) and 150 mM NaCl, sufficiently cooled, and subjected to sonication at […]=60%, 15 sec/ON, 30 sec/OFF for 3 min using ¾″ solid type crushed horn of BRANSON Digital Sonifier 450 (Central Scientific Commerce, Inc.). Furthermore, the homogenate was centrifuged (4° C., 15,000 rpm, 15 min) and the supernatant was obtained. As the purification apparatus, AKTA explorer 10s (GE Healthcare Japan Corporation) was used at 4° C. To the obtained supernatant was added 5M NaCl to the final salt concentration of 0.3 M, and the mixture was flown through and adsorbed to 5 mL of Ni-NTA Superflow Cartridges (QIAGEN) equilibrated in advance with buffer A (50 mM Tris-HCl (pH 8.0) containing 0.05% TritonX-100, 1 mM DTT, 300 mM NaCl). The column was sufficiently washed with buffer A containing 20 mM imidazole and His-hMAGL was eluted with buffer A containing imidazole at a final concentration of 250 mM. The eluate was further subjected to gel filtration using HiLoad 26/600 Superdex 200 pg (GE Healthcare Japan Corporation) equilibrated with 50 mM Tris-HCl pH 8.0 containing 10% glycerol, 0.05% TritonX-100, 1 mM DTT, 150 mM NaCl. The eluted fraction was concentrated by Amicon Ultra-15 10K (Merck Millipore) to give purified His-hMAGL protein. The protein concentration was measured by BCA Protein Assay Kit (Thermo Fisher Scientific) using BSA as the standard.
(3) Measurement of MAGL Inhibitory Activity
His-hMAGL obtained above was diluted with enzyme reaction buffer (10 mM Tris-HCl, pH 7.5, 1 mM EDTA, 0.1 (w/v) % Triton X-100) to a concentration of 60 ng/mL. […] Thereafter, to each well was added 750 μM p-nitrophenyl acetate (Wako Pure Chemical Industries, Ltd.) by 5 μL, and the absorbance at 405 nm was measured every 2 minutes up to 10 minutes by EnVision (PerkinElmer). The amount of change was obtained by subtracting the absorbance measured immediately after the start of the reaction from the absorbance measured 10 min after the start of the reaction.
MAGL inhibitory rate (%) was calculated according to the following calculation formula. (1−(absorbance change amount of test compound addition group−absorbance change amount of enzyme addition-free group)[…](absorbance change amount of test compound addition-free group−absorbance change amount of enzyme addition-free group))×100

inhibition at 10 µM | Inhibition at 10 μM (%) (10 µM) | Structure (SMILES)
99% | – | O=C(c1nccs1)N1CCN(C2CC(=O)N(c3ccc(Cc4ccccc4)cc3)C2)CC1 (stereo not drawn) [Example 38, 1-(4-benzylphenyl)-4-(4-(1,3-thiazol-2-ylcarbonyl)piperazin-1-yl)pyrrolidin-2-one]
97% | – | COc1ccccc1Oc1ccc(N2CC(N3CCN(C(=O)c4nccs4)CC3)CC2=O)cc1 (stereo not drawn) [Example 45, 1-(4-(2-methoxyphenoxy)phenyl)-4-(4-(1,3-thiazol-2-ylcarbonyl)piperazin-1-yl)pyrrolidin-2-one]
90% | – | O=C(c1nccs1)N1CCN(C2CC(=O)N(c3cccc(-c4ccccn4)c3)C2)CC1 (stereo not drawn) [Example 64, 1-(3-(pyridin-2-yl)phenyl)-4-(4-(1,3-thiazol-2-ylcarbonyl)piperazin-1-yl)pyrrolidin-2-one]
93% | – | O=C(c1nccs1)N1CCN(C2CC(=O)N(c3cccc(-c4cccnc4)c3)C2)CC1 (stereo not drawn) [Example 65, 1-(3-(pyridin-3-yl)phenyl)-4-(4-(1,3-thiazol-2-ylcarbonyl)piperazin-1-yl)pyrrolidin-2-one]
91% | – | O=C(c1nccs1)N1CCN(C2CC(=O)N(c3cccc(-c4ccncc4)c3)C2)CC1 (stereo not drawn) [Example 66, 1-(3-(pyridin-4-yl)phenyl)-4-(4-(1,3-thiazol-2-ylcarbonyl)piperazin-1-yl)pyrrolidin-2-one]
91% | – | O=C(c1nccs1)N1CCN(C2CC(=O)N(c3cccc4ccccc34)C2)CC1 (stereo not drawn) [Example 70, 1-(1-naphthyl)-4-(4-(1,3-thiazol-2-ylcarbonyl)piperazin-1-yl)pyrrolidin-2-one]
90% | – | O=C(c1nccs1)N1CCN(C2CC(=O)N(c3ccc4cc(Br)ccc4c3)C2)CC1 (stereo not drawn) [Example 71, 1-(6-brorno-2-naphthyl)-4-(4-(1,3-thiazol-2-ylcarbonyl)piperazin-1-yl)pyrrolidin-2-one]
92% | – | O=C(c1nccs1)N1CCN(C2CC(=O)N(c3ccc4c(c3)oc3ccccc34)C2)CC1 (stereo not drawn) [Example 72, 1-(Dibenzo[b,d]furan-3-yl)-4-(4-(1,3-thiazol-2-ylcarbonyl)piperazin-1-yl)pyrrolidin-2-one]
95% | – | O=C(c1nccs1)N1CCN(C2CC(=O)N(c3cccc(I)c3)C2)CC1 (stereo not drawn) [Example 75, 1-(3-iodophenyl)-4-(4-(1,3-thiazol-2-ylcarbonyl)piperazin-1-yl)pyrrolidin-2-one]
95% | – | O=C(c1nccs1)N1CCN(C2CC(=O)N(c3cccc(-c4ccc(F)cc4)c3)C2)CC1 (stereo not drawn) [Example 76, 1-(4′-fluorobiphenyl-3-yl)-4-(4-(1,3-thiazol-2-ylcarbonyl)piperazin-1-yl)pyrrolidin-2-one]

More lines, now with the values behind:

Structure (SMILES) | inhibition at 10 µM | Inhibition at 10 μM (%) (10 µM)
O=C(c1nccs1)N1CCN(C2CC(=O)N(c3ccc4ccn(-c5ccc(F)cc5)c4c3)C2)CC1 (stereo not drawn) [Example 20, 1-(1-(4-fluorophenyl)-1H-indol-6-yl)-4-(4-(1,3-thiazol-2-ylcarbonyl)piperazin-1-yl)pyrrolidin-2-one] | 93% | –
O=C(N1CCCC1)N1CCN(C2CC(=O)N(c3ccc(Oc4ccccc4)cc3)C2)CC1 (stereo not drawn) [Example 21, 1-(4-Phenoxyphenyl)-4-(4-(pyrrolidin-1-ylcarbonyl)piperazin-1-yl)pyrrolidin-2-one] | 69% | –
COc1ccc(Oc2ccc(N3CC(N4CCN(C(=O)c5nccs5)CC4)CC3=O)cc2)cc1 (stereo not drawn) [Example 22, 1-(4-(4-methoxyphenoxy)phenyl)-4-(4-(1,3-thiazol-2-ylcarbonyl)piperazin-1-yl)pyrrolidin-2-one] | 97% | –
O=C(c1nccs1)N1CCN(C2CC(=O)N(c3ccc4c(ccn4-c4ccc(F)cc4)c3)C2)CC1 (stereo not drawn) [Example 23, 1-(1-(4-Fluorophenyl)-1H-indol-5-yl)-4-(4-(1,3-thiazol-2-ylcarbonyl)piperazin-1-yl)pyrrolidin-2-one (optical isomer)] | – | 99%
O=C(c1cocn1)N1CCN(C2CC(=O)N(c3ccc(Oc4ccccc4)cc3)C2)CC1 (stereo not drawn) [Example 36, 4-(4-(1,3-oxazol-4-ylcarbonyl)piperazin-1-yl)-1-(4-phenoxyphenyl)pyrrolidin-2-one] | 95% | –
COc1cccc(Oc2ccc(N3CC(N4CCN(C(=O)c5nccs5)CC4)CC3=O)cc2)c1 (stereo not drawn) [Example 44, 1-(4-(3-methoxyphenoxy)phenyl)-4-(4-(1,3-thiazol-2-ylcarbonyl)piperazin-1-yl)pyrrolidin-2-one] | 97% | –
O=C(c1nccs1)N1CCN(C2CC(=O)N(c3ccc4[nH]ncc4c3)C2)CC1 (stereo not drawn) [Example 47, 1-(1H-indazol-5-yl)-4-(4-(1,3-thiazol-2-ylcarbonyl)piperazin-1-yl)pyrrolidin-2-one] | 96% | –
O=C(c1nccs1)N1CCN(C2CC(=O)N(c3cnc4c(ccn4-c4ccc(F)cc4)c3)C2)CC1 (stereo not drawn) [Example 51, 1-(1-(4-fluorophenyl)-1H-pyrrolo[2,3-b]pyridin-5-yl)-4-(4-(1,3-thiazol-2-ylcarbonyl)piperazin-1-yl)pyrrolidin-2-one] | 97% | –
O=C(c1nccs1)N1CCN(C2CC(=O)N(c3ccc4c(ccn4-c4ncc(C(F)(F)F)cn4)c3)C2)CC1 (stereo not drawn) [Example 52, 4-(4-(1,3-Thiazol-2-ylcarbonyl)piperazin-1-yl)-1-(1-(5-(trifluoromethyl)pyrimidin-2-yl)-1H-indol-5-yl)pyrrolidin-2-one] | 97% | –
O=C(c1nccs1)N1CCN(C2CC(=O)N(c3ccc4c(ccn4-c4ccc(C(F)(F)F)cn4)c3)C2)CC1 (stereo not drawn) [Example 53, 4-(4-(1,3-Thiazol-2-ylcarbonyl)piperazin-1-yl)-1-(1-(5-(trifluoromethyl)pyridin-2-yl)-1H-indol-5-yl)pyrrolidin-2-one] | 98% | –
O=C(c1nccs1)N1CCN(C2CC(=O)N(c3ccc(C4CC4)cc3)C2)CC1 (stereo not drawn) [Example 57, 1-(4-Cyclopropylphenyl)-4-(4-(1,3-thiazol-2-ylcarbonyl)piperazin-1-yl)pyrrolidin-2-one] | 90% | –
O=C(c1nccs1)N1CCN(C2CC(=O)N(c3ccccc3OCc3ccccc3)C2)CC1 (stereo not drawn) [Example 58, 1-(2-(benzyloxy)phenyl)-4-(4-(1,3-thiazol-2-ylcarbonyl)piperazin-1-yl)pyrrolidin-2-one] | 97% | –
O=C(c1nccs1)N1CCN(C2CC(=O)N(c3ccc(OCc4ccccc4)cc3)C2)CC1 (stereo not drawn) [Example 60, 1-(4-(Benzyloxy)phenyl)-4-(4-(1,3-thiazol-2-ylcarbonyl)piperazin-1-yl)pyrrolidin-2-one] | 98% | –
O=C(c1nccs1)N1CCN(C2CC(=O)N(c3ccc(-c4ccc(Cl)cc4)cc3)C2)CC1 (stereo not drawn) [Example 63, 1-(4′-chlorobiphenyl-4-yl)-4-(4-(1,3-thiazol-2-ylcarbonyl)piperazin-1-yl)pyrrolidin-2-one] | 95% | –
